# Data reported in US8034797B2, “Triazene compounds for the treatment of cancer” (Trin Therapeutics GmbH, priority 2007, dated 2011).
# Like-named read-outs stand apart in the source and are kept apart here.
# Legend:
# MEXF 462 = MEXF 462 melanoma xenograft model; assay type: in vivo, nude mice; details: for tumour volume in % of the tumour volume at the beginning of the test, Mean: 300 mg/kg ip twice weekly
# Method: Breast tumours (MAXF 401) were implanted subcutaneously into the rear members of the mice aged 10 weeks. The increase in the volume of the individual tumours was measured using microcallipers, and the size of the tumour was calculated according to the formula a*b^2/2 (where a is the largest diameter of the tumour and b is the vertical axis). When the tumour volume had increased to 80-120 mm^3, the animals were allocated at random into test groups of in each case 6 animals. […]
# The anti-tumour activity of the compounds was determined in the MEXF 462 xenograft tumour model in the nude mouse. Subcutaneous implantation of the tumour and the determination of tumour volumes were carried out as described hereinbefore. Groups of in each case 8 animals were used.
# Equimolar amounts of the compound of Example 8 were administered ip twice weekly in the form of a 5% DMSO solution over the mentioned period.
# The progression over time of the anti-tumour action, expressed in % of the tumour volume at the beginning of the test, over the period of therapy is shown in Table 3.
# BXF 1218 = assay: Xenograft tumour panel, BXF 1218 (bladder); assay type: in vivo, nude mice; details: 450-540 mg/kg ip twice weekly, 7 d (control ended early); n.s.
# Method: (§1) Breast tumours (MAXF 401) were implanted subcutaneously into the rear members of the mice aged 10 weeks. The increase in the volume of the individual tumours was measured using microcallipers, and the size of the tumour was calculated according to the formula a*b^2/2 (where a is the largest diameter of the tumour and b is the vertical axis). When the tumour volume had increased to 80-120 mm^3, the animals were allocated at random into test groups of in each case 6 animals.
# (§2) To this end, xenografts of human tumours derived from prostate, uterine, lung, pancreatic, bladder and “head and neck” cancers were implanted in nude mice. The implantation and the determination of tumour volumes were carried out as described hereinbefore. Groups of 5 to 8 animals were used. The test substance was administered by ip injection twice weekly in the mentioned doses in the form of the sodium salt as an aqueous solution.
# (§3) The tumour xenografts used, the doses used, the duration of the therapy and a classification of observed anti-tumour actions are summarised in Table 2 below.
# PRXF 22RV1 = assay: Xenograft tumour panel, PRXF 22RV1 (prostate); assay type: in vivo, nude mice; details: 450-540 mg/kg ip twice weekly, 28 d
# Method: as §1, §2, §3
# HNXF 536 = assay: Xenograft tumour panel, HNXF 536 (head & neck); assay type: in vivo, nude mice; details: 450-540 mg/kg ip twice weekly, 28 d
# Method: as §1, §2, §3
# Tumour-carrying mice = assay: Nephrological tolerability (kidney post-mortem and histology); assay type: in vivo
# Method: A control group was treated only with the carrier according to a twice weekly treatment scheme.
# When the 28-day treatment period had ended, a post-mortem was carried out on the mice. […] The kidneys of all the animals in the test groups were removed by operation, fixed in formalin according to standard methods, embedded in paraffin and processed for HE staining.
# CXF 280 = CXF 280 colon carcinoma xenograft model; assay type: in vivo, nude mice
# Method: as §1, §2, §3
# Subcutaneous implantation of the tumour and the determination of tumour volumes were carried out as described hereinbefore. The test substance was administered by ip injection twice weekly in the mentioned doses in the form of the sodium salt as an aqueous solution, over a period of 4 weeks. Groups of in each case 8 animals were used.
# LXFL 529 = assay: Xenograft tumour panel, LXFL 529 (lung); assay type: in vivo, nude mice; details: 450-540 mg/kg ip twice weekly, 10 d (control ended early)
# Method: as §1, §2, §3
# Solubility in water = assay type: physicochemical; details: water, 25 °C, water
# MAXF 401 = MAXF 401 breast tumour xenograft in nude mice; assay type: in vivo
# Method: All the tests were carried out using female nude mice under standard conditions for the keeping of animals with controlled illumination and temperature. The animals were given water and food as desired.
# as §1, with “The” for “Breast tumours (MAXF 401) were implanted subcutaneously into the rear members of the mice aged 10 weeks. The”
# The test compounds (in the form of sodium salts) were dissolved in a saline solution, and 5% Klucel (hydroxypropylcellulose) was added in order to dissolve all the test compounds in the same carrier. […] A volume of 10 ml/kg body weight was injected. Animals that received only the carrier served as control. The test compounds were treated according to the scheme of twice weekly administration over a period of […]. The tumour volume and the body weight were checked twice weekly, and the relative tumour volumes were calculated as the ratio of tumour size to body weight.
# On the basis of the relative tumour volumes of the animals treated with the test compounds compared with the tumour volumes of the controls treated only with the carrier, the T/C values were calculated and were used as the index of anti-tumour activity.
# Subcutaneous implantation of the tumour and the determination of the tumour volume were carried out as described hereinbefore. The above-mentioned salts of the test substance were administered by ip injection twice weekly in the mentioned doses in the form of an aqueous solution, over a period of 4 weeks. […]
# Subcutaneous implantation of the tumour and the determination of tumour volumes were carried out as described hereinbefore. The test substance was administered by ip injection twice weekly in the mentioned doses in the form of the sodium salt as an aqueous solution, over a period of 4 weeks.
# PAXF 1657 = assay: Xenograft tumour panel, PAXF 1657 (pancreas); assay type: in vivo, nude mice; details: 450-540 mg/kg ip twice weekly, 21 d (control ended early); n.s.
# Method: as §1, §2, §3
# MEXF 276 = assay: Xenograft tumour panel, MEXF 276 (melanoma); assay type: in vivo, nude mice; details: 450-540 mg/kg ip twice weekly, 21 d (control ended early)
# UXF 1138 = assay: Xenograft tumour panel, UXF 1138 (uterus); assay type: in vivo, nude mice; details: 450-540 mg/kg ip twice weekly, 21 d (control ended early)
# Method: as §1, §2, §3
# PRXF DU145 = assay: Xenograft tumour panel, PRXF DU145 (prostate); assay type: in vivo, nude mice; details: 385-590 mg/kg ip twice weekly, 28 d
# Method: as §1, §2, §3
# [1] = kidney histology after 28-day twice weekly ip treatment, equimolar to 450 mg of stock composition, affected/animals
# [2] = dose range used (450-540 mg/kg)
# [3] = extrapolated, ip twice weekly over 4 weeks
structure (smiles),measurement,setting,value
CN(C)/N=N/c1ccc(C(=O)c2ccc(OCCC(=O)NCC(=O)[O-])cc2)cc1.[Na+] [Example 2a],Max. effect,"MEXF 462; 100-540 mg/kg ip twice weekly, 28 d, ***",Remission ***
same,"tumour volume in % of the tumour volume at the beginning of the test, Mean",MEXF 462; day 0,100%
same,"tumour volume in % of the tumour volume at the beginning of the test, Mean",MEXF 462; day 3,316%
same,"tumour volume in % of the tumour volume at the beginning of the test, Mean",MEXF 462; day 7,240%
same,"tumour volume in % of the tumour volume at the beginning of the test, Mean",MEXF 462; day 11,187%
same,"tumour volume in % of the tumour volume at the beginning of the test, Mean",MEXF 462; day 14,166%
same,"tumour volume in % of the tumour volume at the beginning of the test, Mean",MEXF 462; day 18,83%
same,"tumour volume in % of the tumour volume at the beginning of the test, Mean",MEXF 462; day 21,67%
same,"tumour volume in % of the tumour volume at the beginning of the test, Mean",MEXF 462; day 25,40%
same,"tumour volume in % of the tumour volume at the beginning of the test, Mean",MEXF 462; day 28,30%
same,outcome of treatment,MEXF 462; equimolar doses ip twice weekly over 4 weeks,partial remission
same,Max. effect (Inhibition),BXF 1218,Inhibition <50% n.s.
same,Max. effect (Inhibition),PRXF 22RV1,Inhibition <50% **
same,Max. effect (Inhibition),HNXF 536,Inhibition <50% **
same,macroscopic findings of the kidneys at post-mortem,Tumour-carrying mice; after 28-day treatment period,without pathological findings
same,Acute single-cell necrosis,Tumour-carrying mice; [1],0/9
same,Focal tubular necrosis,Tumour-carrying mice; [1],0/9
same,anti-tumour action,"CXF 280; 450, 500 or 540 mg/kg ip twice weekly over 4 weeks, all doses",pronounced anti-tumour action
same,Max. effect,"CXF 280; 450-540 mg/kg ip twice weekly, 28 d, ***",Remission ***
same,ED50,"CXF 280; Mus musculus, 672 h, extrapolated, ip twice weekly over 4 weeks",390 mg/kg
same,tolerability,CXF 280; [2],well tolerated
same,weight loss in the animals,CXF 280; [2],not associated with a significant weight loss
same,ED20,CXF 280; [3],330 mg/kg
same,ED90,CXF 280; [3],490 mg/kg
same,Max. effect (Inhibition),LXFL 529,Inhibition <50% *
same,solubility,"Solubility in water; 25° C., read-out: solubility in water at 25° C.",500 mg/mL
same,solubility,"Solubility in water; room temperature (25° C.), read-out: water solubility at room temperature (25° C.)",500 mg/mL
same,Max. effect,"MAXF 401; 300-540 mg/kg ip twice weekly, 28 d, ***",Remission ***
same,ED50,"MAXF 401; Mus musculus, MAXF401, 672 h, ip twice weekly over 4 weeks, read-out: ED50 of the anti-tumour action",450 mg/kg
same,effect at the highest dose,"MAXF 401; highest dose, ip twice weekly over 4 weeks",remission of the tumours
same,ED90 of the anti-tumour action,MAXF 401; ip twice weekly over 4 weeks,500 mg/kg
same,threshold dose of the anti-tumour action,MAXF 401; ip twice weekly over 4 weeks,300 mg/kg
same,Max. effect,PAXF 1657,No anti-tumour
same,Max. effect (Inhibition),MEXF 276,Inhibition >50% ***
same,Max. effect (Inhibition),UXF 1138,Inhibition >50% **
same,Max. effect (Inhibition),PRXF DU145,Inhibition >50% **
